The text below walks through data of patent publication US10859569B2, “SmFRET with membrane proteins” (Cornell University, priority 2010, dated 2020).

“Also recorded” adds a separate entry of the source.

The subject of one test is LeuT (H7C/R86C). Nature of the test: smFRET imaging of surface-immobilized Cy3/Cy5-labeled LeuT (H7C/R86C), intracellular gate. It is filed as biochemical, Aquifex aeolicus. The method, then:
(§1) The inventors acquired fluorescence data using a prism-based TIR microscope, as described (Munro, J. B. et al., Mol. Cell 25, 505-517 (2007)). All experiments were performed in buffer containing 50 mM Tris/MES (pH 7.5), 10% glycerol, 0.02% w/v DDM, 5 mM 2-mercaptoethanol and 200 mM salt (KCl or NaCl, as specified). The inventors used an oxygen scavenging environment (1 unit per μl glucose oxidase, 8 units per μl catalase, 0.1% v/v glucose) containing 1 mM cyclooctatetraene in all experiments to minimize photobleaching (Dave, R. et al., Biophys. J. 96, 2371-2381 (2009)).
The inventors incubated microfluidic imaging chambers passivated with a mixture of PEG and biotin-PEG (Blanchard, S. C. et al. Proc. Natl Acad. Sci. USA 101, 12893-12898 (2004)) with 0.8 μM streptavidin (Invitrogen), followed by 20 nM biotin-NTA (Biotium) charged with NiCl2. Cy3/Cy5-labeled His10-LeuT molecules (2 nM) were surface-immobilized to surface-bound Ni2+. The inventors observed no significant surface immobilization, measured as described below, in the absence of biotin-NTA.
Cy3 fluorophores were excited by the evanescent wave generated by TIR of a single-frequency light source (Ventus 532 nm, Laser Quanta). Photons emitted from Cy3 and Cy5 were collected using a 1.2 NA 60× water-immersion objective (Nikon), and optical treatments were used to spatially separate Cy3 and Cy5 frequencies onto a cooled, back-thinned CCD (Cascade 128, Photometrics). The inventors acquired fluorescence data using MetaMorph software (Universal Imaging Corporation). The inventors corrected spectral bleed-through of Cy3 intensity on the acceptor channel by subtracting 7.5% of donor signal from the acceptor. FRET traces were calculated as: FRET=ICy5/(ICy3+ICy5), where ICy3 and ICy5 are the instantaneous Cy3 and Cy5 fluorescence intensities, respectively. Using an established procedure (Roy, et al., Nature Methods 5: 507-516 (2008)), The inventors estimated the ratio of donor and acceptor quantum yields and detection efficiencies (γ) to be close to 1; therefore, no correction was applied.
The inventors analyzed fluorescence and FRET traces using automated analysis, in which traces were selected using algorithms implemented in MATLAB (MathWorks). Algorithms for analyzing smFRET data are found in U.S. 61/437,203, which is herein incorporated by reference in its entirety. Properties were calculated for each trace, and selected for further analysis if they met the following specific criteria: a single photobleaching event, at least 8:1 signal-to-background noise ratio (SNR), <4 donor fluorophore blinking events, a donor-to-acceptor Pearson's correlation coefficient <0.5, and a lifetime of at least 15 frames showing FRET ≥0.15. The inventors detected photobleaching events in each trace as a significant (≥3 standard deviations of background noise) drop in the median-filtered (window size of 9 frames) total fluorescence intensity (ITotal=ICy3+ICy5) without a return to the previous average level. Events in which fluorescence intensity did return were marked as blinking events. Signal-to-noise ratios are calculated as total intensity relative to the standard deviation of background noise: ITotal/stdev(ICy3)+stdev(ICy5). The inventors excluded data points corresponding to donor fluorophore dark states from calculation of the correlation coefficient.
To simplify the presentation of FRET histograms, The inventors removed zero-FRET states following idealization of the data to a two-state model (E=0.1±0.1 and E=0.4±0.1) using a segmental k-means algorithm (Qin, F., Biophys. J. 86, 1488-1501 (2004)). Error bars in FRET histograms represent the standard deviation of 100 bootstrap samples of each set of FRET traces examined.
The inventors estimated kinetic parameters for biotinylated H7C-R86C-LeuT samples by manually selecting traces showing at least one transition between clearly distinct states with anti-correlated changes in donor and acceptor fluorescence intensity in each transition. […]

A further test concerns LeuT (K239C/H480C). Description: smFRET imaging of extracellularly labeled LeuT K239C/H480C. It is filed as biochemical, Aquifex aeolicus. Conditions: 0.5 mM CMI; increased from ~0.49 without CMI. The method, then: as §1
(§2) The inventors incubated microfluidic imaging chambers passivated with a mixture of PEG and biotin-PEG (Blanchard, S. C. et al. Proc. Natl Acad. Sci. USA 101, 12893-12898 (2004)) with 0.8 μM streptavidin (Invitrogen), followed by 20 nM biotin-NTA (Biotium) charged with NiCl2. […] The inventors observed no significant surface immobilization, measured as described below, in the absence of biotin-NTA.
(§3) Cy3 fluorophores were excited by the evanescent wave generated by TIR of a single-frequency light source (Ventus 532 nm, Laser Quanta). […] The inventors acquired fluorescence data using MetaMorph software (Universal Imaging Corporation). […] FRET traces were calculated as: FRET=ICy5/(ICy3+ICy5), where ICy3 and ICy5 are the instantaneous Cy3 and Cy5 fluorescence intensities, respectively. […]

The test system of test [1] is LeuT. The settings on record: read-out: half-maximum effective concentration (EC50) of Na+ for stimulating binding and transport; cited from earlier work.
The next test concerns LeuT (H7C/T515C). Description: smFRET imaging of Cy3/Cy5-labeled LeuT H7C/T515C. It is filed as biochemical, Aquifex aeolicus. Conditions: saturating Na+ 200 mM. The method, then: as §1, §2, §3
For test [2], the system named is LeuT. Nature of the test: 3H-Ala transport in LeuT proteoliposomes. Conditions: in the presence of Li+ (150 mM). It is filed as biochemical, Aquifex aeolicus. The method, then: Proteoliposomes were prepared as described (Shi, L. et al., Mol. Cell 30, 667-677 (2008)). The accumulation of ^3H-[…].4 Ci mmol^-1; Moravek) was measured at 23° C. in assay buffer comprised of 150/50 mM Tris/Mes (pH 8.5) and 50 mM NaCl/150 mM LiCl. The reaction was quenched by the addition of ice-cold assay buffer without radiotracer and the proteoliposomes were collected on GF75 glass fiber filters (Advantec) before the determination of the accumulated cpm by liquid scintillation counting.

In test [3] the test system is LeuT. Description: Scintillation proximity assay (SPA) binding of 3H-alanine to purified LeuT variants. Also noted: species or system Aquifex aeolicus. The settings on record: 50 mM Na+. The method, then: Scintillation proximity-based binding studies. Binding of ^3H-leucine or ^3H-alanine (146 Ci/mmol and 49.4 Ci/mmol, respectively; Moravek) to purified LeuT-variants was measured with the scintillation proximity assay (SPA) as described (Shi, L. et al., Mol. Cell 30, 667-677 (2008)) with 25 ng of purified protein per assay in buffer composed of 150 mM Tris/Mes, pH 7.5/50 mM NaCl/1 mM TCEP/0.1% n-dodecyl-β-D-maltopyranoside or 50 mM Tris/Mes, pH 7.5/150 mM LiCl/1 mM TCEP/0.1% n-dodecyl-β-D-maltopyranoside. To determine the molar ratio of Leu (or Ala)-to LeuT binding samples were incubated with increasing concentrations of radioligand and measured in the SPA cpm mode of the MircoBeta™ counter (Perkin Elmer). The efficiency of detection was calculated with standard curves of known concentrations of ^3H-Leu or ^3H-Ala. The standard curves were used to transform cpm into the amount of bound substrate (Shi, L. et al., Mol. Cell 30, 667-677 (2008)). The amount of LeuT in the SPA assays was determined (Schaffner, W. et al., Anal. Biochem. 56, 502-514 (1973)). SPA-based binding studies using 2 μM [^22Na]Cl (1017 mCi/mg; Perkin Elmer) were performed in 200 Tris/Mes, pH 7.5/1 mM TCEP/0.1% n-dodecyl-β-D-maltopyranoside in the presence of 0-50 mM NaCl (equimolar replacement of Tris/Mes to obtain a total molarity of 200 mM) (Shi, L. et al., Mol. Cell 30, 667-677 (2008)). […]
(In a scintillation proximity assay essentially only radioactivity close to the scintillant gives light.)

Test [4] deals with Y335A dopamine transporter (Homo sapiens, UniProt Q01959, Y335A). Conditions: Y335A dopamine transporter mutant; cited from earlier work.
Where [5] appears, read: 10 mM Na+ and 250 μM Ala, 0.1 mM CMI or 35 mM OG.

Chain of Y335A dopamine transporter (Q01959 whole entry Y335A): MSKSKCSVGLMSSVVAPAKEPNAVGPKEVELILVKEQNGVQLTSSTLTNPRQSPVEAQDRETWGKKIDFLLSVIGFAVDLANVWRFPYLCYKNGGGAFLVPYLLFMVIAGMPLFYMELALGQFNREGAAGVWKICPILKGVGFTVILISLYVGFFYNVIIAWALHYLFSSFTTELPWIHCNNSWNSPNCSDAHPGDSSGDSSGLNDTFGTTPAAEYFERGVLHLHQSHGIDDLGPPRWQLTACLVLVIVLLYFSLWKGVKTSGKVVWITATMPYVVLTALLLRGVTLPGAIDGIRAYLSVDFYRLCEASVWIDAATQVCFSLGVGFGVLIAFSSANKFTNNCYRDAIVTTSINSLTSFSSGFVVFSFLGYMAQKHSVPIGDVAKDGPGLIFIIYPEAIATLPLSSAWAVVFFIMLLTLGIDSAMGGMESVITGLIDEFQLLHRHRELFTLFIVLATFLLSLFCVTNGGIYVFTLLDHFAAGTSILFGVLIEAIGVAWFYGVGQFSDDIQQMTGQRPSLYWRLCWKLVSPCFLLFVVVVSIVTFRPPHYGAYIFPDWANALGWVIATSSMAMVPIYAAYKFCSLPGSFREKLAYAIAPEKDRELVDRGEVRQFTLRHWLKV

On to `CC(C)C[C@H](N)C(=O)O` [Leu, L-leucine], for which the “further changes in FRET upon addition of leucine” value in the test on LeuT (H7C/R86C) (20 μM leucine at 200 mM Na+) is “did not observe further changes in FRET”. The “stabilization of closed intracellular gate state” value in the test with LeuT (H7C/R86C) (2 mM Na+, Leu titration) is given as about 3.5 fold. The “effect of leucine binding on low-/high-FRET populations” value in the test on LeuT (H7C/R86C) (5 mM Na+, 0.2-20 μM leucine) is “redistributed the two populations in a concentration-dependent fashion in favour of higher-FRET configurations”. Further, the “FRET value of high-FRET configurations reached by leucine-dependent isomerization” value with LeuT (H7C/R86C) (LeuT-R5A, 7/86 pair, 200 mM NaCl and 20 μM leucine) is listed as about 0.77. The “raising of energy barrier to motion” value in the test on LeuT (H7C/R86C) (as much as, similar to Na+ (50 mM) alone) is about 0.96 kcal/mol.
Take `CN(C)CCCN1c2ccccc2CCc2ccc(Cl)cc21` [CMI, clomipramine]: in the test on LeuT (K239C/H480C), the “FRET between K239C/H480C labels with inhibitor bound” value is about 0.53. The “FRET value of stabilized high-FRET state” value with LeuT (H7C/R86C) (0.5 mM CMI, 200 mM KCl, wild-type H7C/R86C) was about 0.69. In addition, the “effect on intracellular gating dynamics” value in the test on LeuT (H7C/R86C) (setting [5]) is on record as “essentially eliminated the occurrence of intracellular gate opening; also recorded: inhibits these conformational dynamics”.
For `[Na+]` [Na^+], the EC50 is about 10 mM in the test on LeuT [1]; 10.9 mM in the test with LeuT (H7C/R86C) (hidden Markov modeling of Na+ titration, read-out: EC50 for altering distribution of low- and high-FRET LeuT conformations). Moreover, the “preferential stabilization of the inward-closed state” value with LeuT (H7C/R86C) (Na+ titration) is recorded as about 7 fold. For the same compound, in the test on LeuT (H7C/R86C) (high Na+ concentrations, limited by photobleaching), the “dwell time of high FRET state” value is reported as over 76 s. Besides, the “FRET value of stabilized higher-FRET state” value is reported as about 0.77 in the test with LeuT (H7C/R86C) (saturating Na+ 200 mM, H7C/R86C) and about 0.73 in the test with LeuT (H7C/T515C).
For `C[C@H](N)C(=O)O` [Ala, L-alanine], the substrate transport entry with LeuT [2] is given as “not observed”. Besides, in the test on LeuT [3] (F253A mutant), the “Ala binding to the S2 site” value is reported as “bound stoichiometrically”. Moreover, the “Ala binding to the S1 site” value in the test with LeuT [3] (L400S mutant) is “stoichiometric”. Moreover, the “effect on FRET distribution” value in the test on LeuT (H7C/R86C) (2 mM Na+, increasing Ala concentrations) is listed as “did not shift the FRET distribution toward the closed state”. Also, the “enhancement of transition rates between inward-open and inward-closed states” value with LeuT (H7C/R86C) (2 mM Na+, as much as) is about 4 fold. Moreover, the “effect on lifetimes of inward-open or inward-closed states” value in the test with LeuT (H7C/R86C) (Ala alone, nominal absence of Na+) is reported as “not significantly affected”. Besides, the “effect on intracellular gating dynamics” value is listed as “failed to increase intracellular gating dynamics” in the test on LeuT (H7C/R86C) (F253A (S1 site) mutant, 10 mM Na+, 250 μM Ala); “no increase in intracellular gating dynamics was observed” in the test with LeuT (H7C/R86C) (L400S (S2 site) mutant, 10 mM Na+, 250 μM Ala); “failed to accelerate intracellular gating dynamics” with LeuT (H7C/R86C) (Li+ in place of Na+ (40 mM Li+), 250 μM Ala). For the same compound, in the test with LeuT (H7C/R86C) (Li+ in place of Na+, 250 μM Ala), the “reduction in the rate of gate opening, kclosed-open” value was about 2 fold. Further, the “lowering of activation barrier between open and closed states (ΔΔG)” value with LeuT (H7C/R86C) (as much as, conditions of the experiment) is about 0.72 kcal/mol.
For the compound `CCCCCCCCO[C@@H]1O[C@H](CO)[C@@H](O)[C@H](O)[C@H]1O` [OG, n-octyl-β-D-glucopyranoside], in the test with LeuT (H7C/R86C) (setting [5]), the “effect on intracellular gating dynamics” value was “inhibited intracellular gating dynamics”.
As to `[Zn]` [zinc], the effect on transport result in test [4] is listed as “markedly enhances transport”.
